According to patent publication US5719303A, “Phosphonic acid derivatives” (Eisai Co., Ltd., priority 1993, dated 1998):

Biological target: T1, squalene synthetase (Rattus norvegicus, UniProt Q02769)
T1 construct: 50 μl of a 1 mg/ml rat liver microsome; from tissue; host or cells: liver microsomes of Sprague-Dawley rats fed 2% cholestyramine; 105000 g fraction
T1 sequence (Q02769 1-416): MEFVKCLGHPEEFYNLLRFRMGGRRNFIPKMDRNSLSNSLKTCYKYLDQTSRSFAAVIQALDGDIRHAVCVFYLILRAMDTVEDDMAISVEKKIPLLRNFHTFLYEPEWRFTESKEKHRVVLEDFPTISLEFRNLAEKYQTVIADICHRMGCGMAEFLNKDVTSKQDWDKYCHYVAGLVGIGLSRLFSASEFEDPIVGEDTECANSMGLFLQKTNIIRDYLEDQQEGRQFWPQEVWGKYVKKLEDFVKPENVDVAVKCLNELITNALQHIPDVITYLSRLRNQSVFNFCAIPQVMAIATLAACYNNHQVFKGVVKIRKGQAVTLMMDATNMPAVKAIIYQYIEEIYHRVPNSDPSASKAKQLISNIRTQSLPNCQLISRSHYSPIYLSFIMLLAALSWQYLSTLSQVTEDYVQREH
Assay: Inhibitory activity against squalene synthetase (3H-FPP to squalene, rat liver microsome)
Assay type: biochemical
Conditions: 3H-FPP substrate, 37° C., 10 minutes, pH 7.4
Method: 50 μl of 500 mM Tris-HCl (pH: 7.4), 50 μl of 10 mM magnesium chloride, 50 μl of 2 mM potassium fluoride, 50 μl of 10 mM nicotinamide adenine dinucleotide phosphate (hereinafter abbreviated to "NADPH"), 100 μl of a sample solution of five-fold concentration, 100 μl of distilled water and 50 μl of a 1 mg/ml rat liver microsome were put in a centrifuge tube, with the liver microsome being one prepared by the method which will be described below.
The above mixture was preincubated at 37° C. for 5 minutes. 50 μl of 100 μM 3H-FPP (10 mCi/mmol, NEN) was added to the resulting mixture to initiate a reaction. After 10 minutes, 1 ml of 4N sodium hydroxide was added to the mixture to stop the reaction, followed by the addition of 1 ml of ethanol. The obtained mixture was incubated at 80° C. for 12 hours, cooled with ice and extracted with petroleum ether twice. The petroleum ether phases were separated from the aqueous phase and evaporated to dryness with nitrogen gas. The residue was dissolved in 25 μl of chloroform containing squalene, farnesol and cholesterol as markers. The obtained solution was applied to TLC (Empore: 412001-1) and developed with benzene/isopropyl ether (1:1) for 6 minutes and with heptane for 15 minutes.
The band of squalene was cut from the plate and examined for radioactivity with a liquid scintillation counter to determine the inhibitory ratio.
The rate liver microsome used in the above experiment was prepared as follows.
A Sqraque-Dawley rat was fed with a feed containing 2% of cholestyramine (Dowex 1-X2) for at least 5 days to enhance the cholesterol biosynthesis activity. At midnight (0:00), the liver was extirpated from the rat. A 1.15 (w/v) % potassium chloride solution was circulated in the blood vessel of the liver extirpated under cooling with ice to remove the blood. The resulting liver was cut into small pieces with scissors, homogenized with a Teflon homogenizer of loose fitting type and subjected to centrifugation (700 g, 10 minutes). The obtained supernatant was further subjected to centrifugation (15000 g, 20 minutes) and the obtained supernatant was subjected to centrifugation (105000 g, 60 minutes) to be separated into a microsome fraction and a supernatant. This microsome fraction was washed with a 0.1M potassium phosphate buffer (pH: 7.4) once, and suspended in the same buffer in a liver concentration of 3 g/ml. The obtained suspension was examined for protein content by the Lowry method and the protein content of the suspension was adjusted to 20 mg/ml.

| IC50 | Compound |
| --- | --- |
| 2.4 nM | COc1ccccc1C(C)=CCN(C)CCCC(P(=O)(O)O)P(=O)(O)O [Example 114] |
| 0.54 nM | CC(=O)c1cccc(/C(C)=C/CN(C)CCCC(P(=O)(O)O)P(=O)(O)O)c1 [Example 238] |
| 1.3 nM | O=P(O)(O)C(CC1CCN(Cc2cccc(/C=C/c3ccccc3)c2)CC1)P(=O)(O)O [Example 209] |
| 1.4 nM | CN(CCCC(P(=O)(O)O)P(=O)(O)O)Cc1ccc(-c2ccccc2)cc1 [Example 32] |
| 0.91 nM | CN(CCCC(P(=O)(O)O)P(=O)(O)O)Cc1ccc(C(=O)c2ccccc2)c(O)c1 [Example 201] |
| 1.8 nM | CC(O)c1ccc(-c2ccc(CN(C)CCCC(P(=O)(O)O)P(=O)(O)O)s2)cc1 (stereo not drawn) [Example 42] |
| 0.28 nM | COc1ccc(C(=O)C2CCN(CCCC(P(=O)(O)O)P(=O)(O)O)CC2)cc1 [Example 16, 4-[4(4-Methoxybenzoyl)piperidino]butylidene-1,1-diphosphonic acid] |
| 170 nM | C/C(=C\CN(C)CC(O)CC(C(=O)O)P(=O)(O)O)CCc1ccc2ccccc2c1 (mixture of isomers) [Example 19, Trisodium 1-carboxy-4-[N-methyl-3-methyl-5-(2-naphthyl)-2-pentenylamino]-3-hydroxybutylphosphonate (diastereomeric mixture)] |
| 3 nM | CC(C)=CCC/C(C)=C/CC/C(C)=C/c1cccc(C(P(=O)(O)O)P(=O)(O)O)c1 [Example 230] |
| 4 nM | Cc1c(-c2ccccc2)ncn1CCCNC(P(=O)(O)O)P(=O)(O)O [Example 210] |
| 1 nM | C/C(=C\CC(P(=O)(O)O)P(=O)(O)O)CCc1ccc2ccccc2c1 [Example 223] |
| 0.81 nM | CC(C)=CCC/C(C)=C/CN(C)C(=O)OCCCC(P(=O)(O)O)P(=O)(O)O [Example 15, Tetrasodium 4-[(E)-N-(3,7-dimethylocta-2,6-dienyl)-N-methylcarbamoyloxybutylidene-1,1-diphosphonate] |
| 5 nM | CN(CCCC(P(=O)(O)O)P(=O)(O)O)Cc1ccc(-c2cccnc2)s1 [Example 41] |
| 3.1 nM | CC(=O)c1ccc(Cc2ccc(CN(C)CCCC(P(=O)(O)O)P(=O)(O)O)cc2)cc1 [Example 246] |
| 2.4 nM | CC(O)c1ccc(Cc2ccc(CN(C)CCCC(P(=O)(O)O)P(=O)(O)O)cc2)cc1 (stereo not drawn) [Example 14, Tetrasodium 4[N-methyl-4-[4-(1-hydroxyethyl)benzyl]benzylamino]butylidene-1-diphosphonate] |
